In US8778975B2, “Helicobacter pylori eradicating agent having inhibitory activity on gastric acid secretion” (Link Geonomics, Inc., priority 2006, dated 2014):
Values after ≈ are worked out from the molar mass of the structure shown. Like-named read-outs stand apart in the source and are kept apart here.

Key:
[1] = system: Escherichia coli (ATCC 10536); assay: Antibacterial test (MIC), Gram-negative bacteria; format: cell-based
From the text: (§1) As for the Gram-negative bacteria, E. coli (ATCC 10536, ATCC 25922), Klebsiella pneumonia (ATCC 10031), Proteus vulgaris (ATCC 13315), Pseudomonas aeruginosa (ATCC 9027), and Salmonella typhimurium (ATCC 13311) were used, and as for the Gram-positive bacteria, Staphylococcus aureus, MRSA (ATCC 33591), Staphylococcus epidermidis (ATCC 12228), Streptococcus pneumonia (ATCC 6301), Mycobacterium ranae (ATCC 110), and Enterococcus faecalis (VRE, ATCC 51575) were used. The various bacteria were cultured at 37° C. for 20 to 48 hours by conventional methods, and the minimum growth inhibitory concentration (MIC, μg/ml) was determined. Each of the specimens was dissolved in a 1% DMSO solution. Furthermore, amoxicillin, clarithromycin and gentamycin were used as control drugs of antibacterial substance.

[2] = system: Proteus vulgaris (ATCC 13315); assay: Antibacterial test (MIC), Gram-negative bacteria; format: cell-based
From the text: as §1

[3] = system: Salmonella typhimurium (ATCC 13311); assay: Antibacterial test (MIC), Gram-negative bacteria; format: cell-based
From the text: as §1

[4] = system: Pseudomonas aeruginosa (ATCC 9027); assay: Antibacterial test (MIC), Gram-negative bacteria; format: cell-based
From the text: as §1

[5] = system: Escherichia coli (ATCC 25922); assay: Antibacterial test (MIC), Gram-negative bacteria; format: cell-based
From the text: as §1

[6] = system: clinically separated clarithromycin-resistant strains and amoxicillin-insensitive strains of Helicobacter pylori; assay: Antibacterial potency (MIC) against clarithromycin-resistant and amoxicillin-insensitive strains, Pharmacological Test Example 3; format: cell-based
Description: A test was conducted on the antibacterial potency of the compounds of the present invention against the clarithromycin-resistant strains and amoxicillin-insensitive strains of the bacterium Helicobacter pylori.
A test was conducted on the antibacterial potency of the compounds of the present invention, using clinically separated clarithromycin-resistant strains and amoxicillin-insensitive strains of the bacterium Helicobacter pylori. For the respective strains, in vitro tests were performed in Columbia agar medium. Each of the specimens was dissolved in a 1% DMSO solution. The bacteria were cultured at 37° C. and pH 7.0 for 3 days, and on the 4th day, the minimum growth inhibitory concentration (MIC, μg/ml) was determined.

[7] = system: Helicobacter pylori standard strains ATCC 43504, ATCC 43629, ATCC 43570 and clinically separated strains; assay: Anti-Helicobacter pylori activity (MIC), standard and clinically separated strains, Pharmacological Test Example 2; format: cell-based
Description: For the bacterium Helicobacter pylori, standard strains ATCC 43504, ATCC 43629 and ATCC 43570 were used to perform in vitro tests in Columbia agar medium. The bacteria were cultured at 37° C. and pH 7.0 for 3 days. On the 4th day, the minimum growth inhibitory concentration (MIC, μg/ml) was determined. Each of the specimens was dissolved in a 1% DMSO solution. Furthermore, amoxicillin and clarithromycin were used as control drugs of antibacterial substance. Further, the compound described in the article of Thomas C. Kuehler (J. Med.

[8] = system: Enterococcus faecalis (VRE, ATCC 51575); assay: Antibacterial test (MIC), Gram-positive bacteria; format: cell-based
From the text: as §1

[9] = system: Streptococcus pneumonia (ATCC 6301); assay: Antibacterial test (MIC), Gram-positive bacteria; format: cell-based; conditions: Streptococcus pneumoniae, ATCC6301
From the text: as §1

[10] = system: Staphylococcus aureus, MRSA (ATCC 33591); assay: Antibacterial test (MIC), Gram-positive bacteria; format: cell-based
From the text: as §1

[11] = system: Helicobacter pylori bacteria (ATCC 43504); assay: Antiulcer action and bacteria eradicating action in Helicobacter pylori-infected Mongolian gerbils; format: in vivo; conditions: for Number of Bacteria (average) (log CFU): gastric mucosa
Description: Mongolian gerbils were experimentally infected with Helicobacter pylori bacteria, and the antiulcer action and the Helicobacter pylori bacteria eradicating action of the compounds of the present invention were tested.
Male Mongolian gerbils (30 to 40 g), five animals in each group, were orally inoculated with Helicobacter pylori bacteria (ATCC 43504) at 1.6×10^7 CFU/0.5 ml/mouse, and bred for one week, and then drug was administered two times a day for two weeks. Thereafter, the […] were bred for three weeks, and then the rats were fasted for 18 hours and subjected to abdominal section, followed by autopsy. The severity of gastric ulcer, the number of Helicobacter pylori bacteria in the gastric mucosa, and the antibody titer were measured.

[12] = system: Klebsiella pneumonia (ATCC 10031); assay: Antibacterial test (MIC), Gram-negative bacteria; format: cell-based
From the text: as §1

[13] = system: Mycobacterium ranae (ATCC 110); assay: Antibacterial test (MIC), Gram-positive bacteria; format: cell-based
From the text: as §1

[14] = system: Staphylococcus epidermidis (ATCC 12228); assay: Antibacterial test (MIC), Gram-positive bacteria; format: cell-based
From the text: as §1

[15] = Salmonella enterica, read-out: MIC
[16] = Helicobacter pylori, AMO-insensitive strain NO. 4, read-out: MIC
[17] = Helicobacter pylori, CAM-resistant strain NO. 1, read-out: MIC
[18] = Helicobacter pylori, CAM-resistant strain NO. 2, read-out: MIC
[19] = Helicobacter pylori, CAM-resistant strain NO. 3, read-out: MIC
[20] = Helicobacter pylori, CAM-resistant strain NO. 4, read-out: MIC
[21] = Clinically separated strain PT1045482
[22] = Clinically separated strain PT1045483
[23] = Clinically separated strain PT1045484

Molecule	MIC ([1]; ATCC10536, read-out: MIC) [µg/mL]	MIC ([2]; ATCC13315, read-out: MIC) [µg/mL]	MIC [3, 15] [µg/mL]	MIC ([4]; ATCC9027, read-out: MIC) [µg/mL]	MIC ([5]; ATCC25922, read-out: MIC) [µg/mL]	MIC [6, 16] [µg/mL]	MIC [6, 17] [µg/mL]	MIC [6, 18] [µg/mL]	MIC [6, 19] [µg/mL]	MIC [6, 20] [µg/mL]	MIC [7, 21] [µg/mL]	MIC [7, 22] [µg/mL]	MIC [7, 23] [µg/mL]	MIC ([7]; Standard strain ATCC 43504) [µg/mL]	MIC ([7]; Standard strain ATCC 43570) [µg/mL]	MIC ([7]; Standard strain ATCC 43629) [µg/mL]	MIC [8] [µg/mL]	MIC [9] [µg/mL]	MIC ([10]; read-out: MIC) [µg/mL]	also measured
CC1(C)S[C@@H]2[C@H](NC(=O)[C@H](N)c3ccc(O)cc3)C(=O)N2[C@H]1C(=O)O [AMPC, Amoxicillin]	6.25 (≈ 17.1 µM)	6.25 (≈ 17.1 µM)	0.3 (≈ 0.821 µM)	> 100	6.25 (≈ 17.1 µM)	0.12 (≈ 0.328 µM)	< 0.015	< 0.015	< 0.015	< 0.015	0.06 (≈ 0.164 µM)	0.06 (≈ 0.164 µM)	0.06 (≈ 0.164 µM)	0.06 (≈ 0.164 µM)	< 0.015	0.06 (≈ 0.164 µM)	0.3 (≈ 0.821 µM)	0.01 (≈ 0.0274 µM)	0.1 (≈ 0.274 µM)	MIC ([6]; AMO-insensitive strain NO. 2): 0.25 µg/mL (≈ 0.684 µM); MIC ([6]; AMO-insensitive strain NO. 3): 0.25 µg/mL (≈ 0.684 µM); MIC ([6]; Helicobacter pylori): 0.25 µg/mL (≈ 0.684 µM); Antibody titer (average) ([11]; 10 mg/kg): 0.40; Number of Bacteria (average) (log CFU) ([11]; 10 mg/kg): 5.0 log CFU; Number of Ulcers discovered ([11]; 10 mg/kg, two times a day for two weeks): 4/5; responders at 10 mg/kg ([11]; Helicobacter pylori, ATCC43504, 336 h, 10 mg/kg, two times a day for two weeks, read-out: Eradication rate (%)): 20%
CC[C@H]1OC(=O)[C@H](C)[C@@H](O[C@H]2C[C@@](C)(OC)[C@@H](O)[C@H](C)O2)[C@H](C)[C@@H](O[C@@H]2O[C@H](C)C[C@H](N(C)C)[C@H]2O)[C@](C)(OC)C[C@@H](C)C(=O)[C@H](C)[C@@H](O)[C@]1(C)O [CAM, Clarithromycin]	50 (≈ 66.8 µM)	100 (≈ 134 µM)	25 (≈ 33.4 µM)	> 100	50 (≈ 66.8 µM)	0.03 (≈ 0.0401 µM)	32 (≈ 42.8 µM)	8 (≈ 10.7 µM)	64 (≈ 85.6 µM)	32 (≈ 42.8 µM)	0.3 (≈ 0.401 µM)	0.3 (≈ 0.401 µM)	0.3 (≈ 0.401 µM)	0.1 (≈ 0.134 µM)	< 0.015	0.1 (≈ 0.134 µM)	0.1 (≈ 0.134 µM)	0.02 (≈ 0.0267 µM)	0.1 (≈ 0.134 µM)	MIC ([6]; Helicobacter pylori, AMO-insensitive strain NO. 1, read-out: MIC): 0.06 µg/mL (≈ 0.0802 µM); MIC ([6]; Helicobacter pylori, AMO-insensitive strain NO. 2, read-out: MIC): 0.03 µg/mL (≈ 0.0401 µM); MIC ([6]; Helicobacter pylori, AMO-insensitive strain NO. 3, read-out: MIC): 0.06 µg/mL (≈ 0.0802 µM); Antibody titer (average) ([11]; 30 mg/kg): 0.35; Number of Bacteria (average) (log CFU) ([11]; 30 mg/kg): 5.2 log CFU; Number of Ulcers discovered ([11]; 30 mg/kg, two times a day for two weeks): 4/5; responders at 30 mg/kg ([11]; Helicobacter pylori, ATCC43504, 336 h, 30 mg/kg, two times a day for two weeks, read-out: Eradication rate (%)): 20%
Gentamycin [GEM]	–	–	–	–	–	–	–	–	–	–	–	–	–	–	–	–	–	–	–	MIC [12]: 1.0 µg/mL; MIC [1]: 0.3 µg/mL; MIC [2]: 0.3 µg/mL; MIC [3]: 1.0 µg/mL; MIC [4]: 0.3 µg/mL; MIC [5]: 1.0 µg/mL; MIC [10]: 1.0 µg/mL; MIC [13]: 0.3 µg/mL; MIC [14]: 0.1 µg/mL
